The source of these data is patent US20060084675A1, “Combined treatment with artesunate and an epidermal growth factor receptor kinase inhibitor” (priority 2004, published 2006).

Several values for one entry are separate records, joined by “and”; a condition that tells them apart may be missing. Equal values may be shown once. Read-outs that look alike come from different tables or passages of the source.

By IC50 is commonly meant the point on the concentration scale where inhibition reaches its midpoint. What is called inhibition is the relative decrease from the control value, in per cent.

For one series, the system named is G-599GM cell line. The series is described as follows: Growth inhibition assay (incl. isobolographic analysis). The settings on record: Homo sapiens; for IC50: read-out: IC50, drug alone. The format is cell-based. The method, then:
(§1) Nine established GBM cell lines derived from histopathologically confirmed neurosurgical specimens obtained in the Department for Neurosurgery, University of Gottingen, Germany, were maintained in RPMI 1640 medium (BioWhittaker, Walkersville, Md., U.S.A.) supplemented with 10% heat-inactivated fetal calf serum and incubated in a humidified 5% CO2 atmosphere at 37° C. Medium was exchanged twice weekly, and cells were passaged upon reaching subconfluence. At the beginning of the study, all cell lines were beyond their 20th passage. The in vitro response to cytostatic drugs was evaluated by means of a growth inhibition assay. Aliquots of 5×10^3 cells/ml were seeded in culture medium, and drugs were added at different concentrations. Cells were counted 10 days after seeding. These growth curves represent the net outcome of cell proliferation and cell death. Cell numbers were quantitated each in eight independent determinations. […] G. and Peckham, M. J. (1979) Int. J. Radiat. Oncol. Biol. Phys. 5:85-91; Berenbaum, M. C. (1981) Adv. Cancer Res. 35:269-335).

A further series deals with 14 GBM cell lines. The series is described as follows: Growth inhibition assay, panel. The format is cell-based. Particulars: Homo sapiens; ART alone; range over 14 cell lines.
Excerpt: as §1, with “(1997) J. Biol. Chem. 272:2927-2935). The cell lines were provided by Dr. W. K. Cavenee (Ludwig Institute for Cancer Research, San Diego, Calif., U.S.A.). Cell culture conditions of these cell lines were as described ([…], et al. (1996) Cancer Res. 56:5079-5086). Nine” for “Nine”

The conditions of series [1]: intravenous application of 2 mg/kg; cited from earlier work.
The test system of a further series is U-87MG cells. The series is described as follows: Growth inhibition assay. It is filed as cell-based. Particulars: Homo sapiens, 240 h, single drug, cells counted 10 days after seeding, read-out: IC50 calculated from the dose-response curves. The method, then: (§2) The establishment of the parental human GBM cell line U-87MG and its derivatives which overexpress exogenous wild-type epidermal growth factor receptor (U-87MG.WT-2N), tyrosine kinase-deficient EGFR (U-87MG.DK-2N), EGFR with a genomic deletion of exons 2 to 7 (U-87MG.ΔEGFR), or control expression vector (U-87MG.LUX), respectively, has been described elsewhere (Huang, H-J S et al. (1997) J. Biol. Chem. 272:2927-2935). The cell lines were provided by Dr. W. K. Cavenee (Ludwig Institute for Cancer Research, San Diego, Calif., U.S.A.). Cell culture conditions of these cell lines were as described (Nagane M, et al. (1996) Cancer Res. 56:5079-5086).
(§3) The in vitro response to cytostatic drugs was evaluated by means of a growth inhibition assay. Aliquots of 5×10^3 cells/ml were seeded in culture medium, and drugs were added at different concentrations. Cells were counted 10 days after seeding. These growth curves represent the net outcome of cell proliferation and cell death. Cell numbers were quantitated each in eight independent determinations.

The subject of a further series is U-87MG.WT-2N cells. As to the kind of experiment: Growth inhibition assay. The format is cell-based. The settings on record: Homo sapiens. The method, then: as §2, §3
Another series relates to G-1265GM. As to the kind of experiment: Growth inhibition assay. The format is cell-based. Particulars: Homo sapiens. As to the method:
Nine established GBM cell lines derived from histopathologically confirmed neurosurgical specimens obtained in the Department for Neurosurgery, University of Gottingen, Germany, were maintained in RPMI 1640 medium (BioWhittaker, Walkersville, Md., U.S.A.) supplemented with 10% heat-inactivated fetal calf serum and incubated in a humidified 5% CO2 atmosphere at 37° C. Medium was exchanged twice weekly, and cells were passaged upon reaching subconfluence. At the beginning of the study, all cell lines were beyond their 20th passage.
as §3

For series [2] the following is noted: patients with advanced solid malignancies, phase I; cited from earlier work.

On to `C[C@H]1[C@H](OC(=O)CCC(=O)O)O[C@@H]2O[C@@]3(C)CC[C@H]4[C@H](C)CC[C@@H]1[C@@]24OO3` [ART, artesunate], for which the IC50 is 4.2 µM with G-599GM cell line (single drug) and 1.5 to 18.5 µM in the series with 14 GBM cell lines. Further, the peak plasma concentration in series [1] is 6.88 ± 4.69 µM.

With `C#Cc1cccc(Nc2ncnc3cc(OCCOC)c(OCCOC)cc23)c1` [OSI-774, [6,7-bis(2-methoxyethoxy)-4-quinazolin-4-yl]-(3-ethynylphenyl)amine], the IC50 was 8.6 µM in the series with U-87MG cells and 1.3 µM in the series on G-599GM cell line. Also, the inhibition at 1 µM is 33.8% with U-87MG.WT-2N cells, 23.4% in the series on G-599GM cell line (read-out: growth inhibition) and -1.79% with G-1265GM. The “average minimal steady state plasma concentration” value in series [2] is 1.2 μg/ml and 3 μM.
